Experimental data as given in patent US12180187B2, “1-phenyl-5-azinylpyrazolyl-3-oxyalkyl acids and their use for controlling unwanted plant growth” (BAYER AKTIENGESELLSCHAFT, priority 2019, dated 2024).

Tests used:
KCHSC = assay: Post-emergence action against KCHSC, 1.28 kg/ha; format: in vivo, Bassia scoparia; conditions: dosage 1280 g/ha, visual rating about 3 weeks after treatment vs untreated controls (100% = plants died)
Procedure: (§1) • a) Seeds of mono- and dicotyledonous weed plants are placed in plastic pots in sandy loam soil (twin sowing with one species each of mono- or dicotyledonous weed plants per pot), covered with soil and cultivated in a greenhouse under controlled growth conditions. 2 to 3 weeks after sowing, the test plants are treated at the one-leaf stage. The compounds of the invention, formulated in the form of wettable powders (WP) or as emulsion concentrates (EC), are applied to the green parts of the plants as aqueous suspension or emulsion with addition of 0.5% additive at a water application rate equivalent to 600 litres per hectare. After the test plants have been kept in the greenhouse under optimum growth conditions for about 3 weeks, the activity of the preparations is rated visually in comparison to untreated controls. For example, 100% activity=the plants have died, 0% activity=like control plants. As shown by the results, compounds of the general formula (I) of the invention, in post-emergence treatment, have very good herbicidal efficacy (90% to 100% herbicidal action) against harmful plants such as Abutilon theophrasti, Digitaria sanguinalis, Echinochloa crus-galli, Matricaria inodora, Poa annua, at an application rate of 1.28 kg of active substance per hectare.

AMARE [1] = assay: Pre-emergence action against AMARE, 1280 g/ha; format: in vivo, Amaranthus retroflexus; conditions: scored visually after about 3 weeks vs untreated controls (100% = plants have died)
Outline: (§2)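 Weed seeds sown in sandy loam in pots, covered with soil; compound as WP or EC applied to soil surface as aqueous suspension/emulsion with 0.5% additive at 600 L/ha water. Greenhouse, good growth conditions; visual % damage vs untreated controls after about 3 weeks (100% = plants dead, 0% = like control).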

POAAN [2] = assay: Pre-emergence action against POAAN, 1280 g/ha; format: in vivo, Poa annua; conditions: visual scoring after about 3 weeks vs untreated controls, 100% = plants have died, 0% = like control plants
Outline: as §2

AMARE [3] = assay: Post-emergence action against AMARE, 1.28 kg/ha; format: in vivo, Amaranthus retroflexus; conditions: dosage 1280 g/ha, visual rating about 3 weeks after treatment vs untreated controls (100% = plants died)
Outline: (§3)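 Greenhouse-grown weeds (sandy loam, twin-sown pots) were treated 2–3 weeks post-sowing at one leaf. The spray was an aqueous WP/EC preparation plus 0.5% additive, applied at 600 L/ha. Scoring was visual at ~3 weeks, 0–100% versus untreated controls.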

ABUTH = assay: Post-emergence action against ABUTH, 1.28 kg/ha; format: in vivo, Abutilon theophrasti; conditions: dosage 1280 g/ha, visual rating about 3 weeks after treatment vs untreated controls (100% = plants died)
Outline: as §3

STEME [4] = assay: Pre-emergence action against STEME, 1280 g/ha; format: in vivo, Stellaria media; conditions: scored visually after about 3 weeks vs untreated controls (100% = plants have died)
Outline: as §2

VERPE [5] = assay: Post-emergence action against VERPE, 1.28 kg/ha; format: in vivo, Veronica persica; conditions: dosage 1280 g/ha, visual rating about 3 weeks after treatment vs untreated controls (100% = plants died)
Outline: as §3

ALOMY [6] = assay: Pre-emergence action against ALOMY, 1280 g/ha; format: in vivo, Alopecurus myosuroides; conditions: visual scoring after about 3 weeks vs untreated controls, 100% = plants have died, 0% = like control plants
Outline: as §2

LOLRI [7] = assay: Pre-emergence action against LOLRI, 1280 g/ha; format: in vivo, Lolium rigidum; conditions: visual scoring after about 3 weeks vs untreated controls, 100% = plants have died, 0% = like control plants
Outline: as §2

DIGSA [8] = assay: Post-emergence action against DIGSA, 1.28 kg/ha; format: in vivo, Digitaria sanguinalis; conditions: dosage 1280 g/ha, visual rating about 3 weeks after treatment vs untreated controls
Outline: as §3

DIGSA [9] = assay: Pre-emergence action against DIGSA, 1280 g/ha; format: in vivo, Digitaria sanguinalis; conditions: visual scoring after about 3 weeks vs untreated controls, 100% = plants have died, 0% = like control plants
Outline: as §2

ALOMY [10] = assay: Post-emergence action against ALOMY, 1.28 kg/ha; format: in vivo, Alopecurus myosuroides; conditions: dosage 1280 g/ha, visual rating about 3 weeks after treatment vs untreated controls
Outline: as §3

MATIN [11] = assay: Pre-emergence action against MATIN, 1280 g/ha; format: in vivo, Tripleurospermum inodorum (Matricaria inodora); conditions: scored visually after about 3 weeks vs untreated controls (100% = plants have died)
Outline: as §2

SETVI [12] = assay: Post-emergence action against SETVI, 1.28 kg/ha; format: in vivo, Setaria viridis; conditions: dosage 1280 g/ha, visual rating about 3 weeks after treatment vs untreated controls
Outline: as §3

POAAN [13] = assay: Post-emergence action against POAAN, 1.28 kg/ha; format: in vivo, Poa annua; conditions: dosage 1280 g/ha, visual rating about 3 weeks after treatment vs untreated controls
Outline: as §3

MATIN [14] = assay: Post-emergence action against MATIN, 1.28 kg/ha; format: in vivo, Tripleurospermum inodorum (Matricaria inodora); conditions: dosage 1280 g/ha, visual rating about 3 weeks after treatment vs untreated controls (100% = plants died)
Outline: as §3

ECHCG [15] = assay: Pre-emergence action against ECHCG, 1280 g/ha; format: in vivo, Echinochloa crus-galli; conditions: visual scoring after about 3 weeks vs untreated controls, 100% = plants have died, 0% = like control plants
Outline: as §2

SETVI [16] = assay: Pre-emergence action against SETVI, 1280 g/ha; format: in vivo, Setaria viridis; conditions: visual scoring after about 3 weeks vs untreated controls, 100% = plants have died, 0% = like control plants
Outline: as §2

ECHCG [17] = assay: Post-emergence action against ECHCG, 1.28 kg/ha; format: in vivo, Echinochloa crus-galli; conditions: dosage 1280 g/ha, visual rating about 3 weeks after treatment vs untreated controls
Outline: as §3

VERPE [18] = assay: Pre-emergence action against VERPE, 1280 g/ha; format: in vivo, Veronica persica; conditions: scored visually after about 3 weeks vs untreated controls (100% = plants have died)
Outline: as §2

LOLRI [19] = assay: Post-emergence action against LOLRI, 1.28 kg/ha; format: in vivo, Lolium rigidum; conditions: dosage 1280 g/ha, visual rating about 3 weeks after treatment vs untreated controls
Procedure: as §1

STEME [20] = assay: Post-emergence action against STEME, 1.28 kg/ha; format: in vivo, Stellaria media; conditions: dosage 1280 g/ha, visual rating about 3 weeks after treatment vs untreated controls (100% = plants died)
Outline: as §3

SMILES	Post-emergence action against KCHSC (KCHSC)	Pre-emergence action against AMARE (AMARE [1])	Pre-emergence action against POAAN (POAAN [2])	Post-emergence action against AMARE (AMARE [3])	Post-emergence action against ABUTH (ABUTH)	Pre-emergence action against STEME (STEME [4])	Post-emergence action against VERPE (VERPE [5])	Pre-emergence action against ALOMY (ALOMY [6])	Pre-emergence action against LOLRI (LOLRI [7])	Post-emergence action against DIGSA (DIGSA [8])	Pre-emergence action against DIGSA (DIGSA [9])	Post-emergence action against ALOMY (ALOMY [10])	Pre-emergence action against MATIN (MATIN [11])	Post-emergence action against SETVI (SETVI [12])	Post-emergence action against POAAN (POAAN [13])	Post-emergence action against MATIN (MATIN [14])	Pre-emergence action against ECHCG (ECHCG [15])	Pre-emergence action against SETVI (SETVI [16])	Post-emergence action against ECHCG (ECHCG [17])	Pre-emergence action against VERPE (VERPE [18])	also measured
N#CCCNC(=O)COc1nn(-c2ccc(F)cc2F)c(-c2ccc(F)nc2)c1Br [Example X-029]	90%	100%	100%	90%	90%	90%	100%	–	–	–	–	–	–	–	–	–	–	–	–	–	–
CONC(=O)COc1nn(-c2ccc(F)cc2F)c(-c2ccc(F)cn2)c1Br [II-004]	90%	–	100%	–	–	–	100%	100%	90%	100%	100%	100%	–	–	–	–	–	–	–	–	–
CCOC(=O)COc1nn(-c2ccccc2F)c(-c2ccc(F)cn2)c1I [II-012]	100%	90%	100%	100%	90%	100%	100%	90%	100%	90%	100%	100%	90%	90%	100%	90%	90%	100%	100%	90%	–
CCOC(=O)COc1nn(-c2ccccc2F)c(-c2ccnnc2)c1Br [IV-001, Ethyl {[4-bromo-1-(2-fluorophenyl)-5-(pyridazin-4-yl)-1H-pyrazol-3-yl]oxy}acetate]	90%	–	–	–	–	–	–	–	–	–	–	100%	–	100%	–	–	–	–	–	–	pest or weed control at 1280 g/ha (AMARE [1]; Amaranthus retroflexus, 504 h): 90%; pest or weed control at 1280 g/ha (MATIN [11]; Tripleurospermum inodorum, 504 h): 90%; pest or weed control at 1280 g/ha (POAAN [2]; Poa annua, 504 h): 100%; pest or weed control at 1280 g/ha (POAAN [13]; Poa annua, 504 h): 100%; pest or weed control at 1280 g/ha (ECHCG [15]; Echinochloa crus-galli, 504 h): 90%; pest or weed control at 1280 g/ha (LOLRI [7]; Lolium rigidum, 504 h): 100%; pest or weed control at 1280 g/ha (SETVI [16]; Setaria viridis, 504 h): 100%; pest or weed control at 1280 g/ha (STEME [4]; Stellaria media, 504 h): 90%; pest or weed control at 1280 g/ha (VERPE [5]; Veronica persica, 504 h): 90%; pest or weed control at 1280 g/ha (ECHCG [17]; Echinochloa crus-galli, 504 h): 90%
CONC(=O)COc1nn(-c2ccccc2F)c(-c2ccc(F)nc2)c1Br [VII-068]	90%	100%	100%	100%	100%	100%	100%	100%	100%	100%	100%	100%	100%	90%	100%	90%	100%	100%	100%	100%	Post-emergence action against LOLRI (LOLRI [19]): 100%
O=C(O)COc1nn(-c2ccc(F)cc2)c(-c2ccc(F)nc2)c1I [VII-069]	90%	100%	100%	–	90%	100%	100%	–	90%	100%	100%	100%	90%	–	–	90%	–	100%	–	100%	Post-emergence action against STEME (STEME [20]): 90%
CCOC(=O)COc1nn(-c2ccc(F)cc2)c(-c2ccc(F)nc2)c1I [VII-102]	90%	90%	100%	100%	–	90%	100%	90%	100%	–	100%	100%	90%	–	100%	100%	100%	100%	–	100%	–
COC(=O)CNC(=O)COc1nn(-c2ccccc2F)c(-c2ccnc(F)c2)c1Br [VIII-009]	90%	100%	100%	90%	–	100%	100%	–	90%	100%	100%	100%	100%	90%	100%	90%	100%	100%	100%	100%	–
COC(=O)COc1nn(-c2cc(F)ccc2F)c(-c2ccnc(F)c2)c1Br [VIII-010]	90%	100%	100%	100%	–	100%	90%	100%	100%	100%	100%	100%	100%	100%	100%	100%	100%	100%	100%	100%	Post-emergence action against STEME (STEME [20]): 100%; Post-emergence action against LOLRI (LOLRI [19]): 100%
